Some test systems named below: SNB-19; NCI-H522; SF-268; KM12; U-251; NCI/ADR-RES; UACC-62; OVCAR-4; SF-539; DU-145; SN12C; HCT-15; SW-620; EKVX; SK-MEL-28; OVCAR-5; UACC-257; SK-MEL-5; RPMI-8226.
What all share (assay): inhibition of tumour cell growth, NCI panel, 48 h

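Tested at 5 concentrations; 48 h exposure; 96-well plates; endpoints linearly interpolated, else capped at highest concentration. The concentration for 50% growth inhibition is given as GI50.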 Calls of active or inactive are those of the source. No stated cut-off is given here; in the data, active = GI50 up to about 1.1 µM and inactive = higher.

For `COC(=O)CNC(=O)CCSc1nnc(COc2ccc(Cl)cc2)n1-c1ccccc1`, the GI50 was > 100 µM (inactive) with SNB-19; 15.4 µM (inactive) with NCI-H522; 20.3 µM (inactive) with SF-268; 34 µM (inactive) in the assay with KM12; 64.3 µM (inactive) with U-251; 42.6 µM (inactive) in the assay on NCI/ADR-RES. Besides, the GI50 in the assay on UACC-62 is 20.2 µM (inactive); with OVCAR-4 it was 61.1 µM (inactive); in the assay with SF-539, 91.8 µM (inactive); with DU-145, 20.9 µM (inactive); with SN12C, 20.3 µM (inactive); in the assay with HCT-15, 74.6 µM. Also, the GI50 is 39.5 µM (inactive) in the assay with SW-620; 59.6 µM (inactive) with EKVX; 23.7 µM (inactive) with SK-MEL-28; 47.8 µM (inactive) in the assay on OVCAR-5; 19.1 µM (inactive) in the assay with UACC-257.

With `CSC1=N/C(=C\c2ccc(Cl)cc2)C(=O)N1CN1CCOCC1`, the GI50 in the assay on SNB-19 is 31.8 µM (inactive); in the assay with NCI-H522 it was 30.7 µM (inactive); in the assay on SF-268 it was 18.2 µM (inactive); in the assay on KM12 it was 85.7 µM (inactive); with U-251 it was 27 µM (inactive); in the assay on NCI/ADR-RES, 40.6 µM (inactive). Moreover, the GI50 in the assay with UACC-62 is 28.9 µM (inactive); with OVCAR-4, 21 µM (inactive); in the assay on SK-MEL-5 it was 32.6 µM (inactive); in the assay with RPMI-8226 it was 19.3 µM (inactive); in the assay on DU-145, 63.8 µM (inactive); in the assay on SN12C, 47.5 µM (inactive). The GI50 with HCT-15 is 21.6 µM; in the assay on SW-620, 36.7 µM (inactive); in the assay on EKVX, 53.5 µM (inactive); in the assay on SK-MEL-28, > 100 µM (inactive); with OVCAR-5, 87.9 µM (inactive).

Consider `ON=C(CC(O)(C(F)(F)Cl)C(F)(F)Cl)CC(O)(C(F)(F)Cl)C(F)(F)Cl`, for which the GI50 in the assay with SNB-19 was 4.25 µM (inactive); in the assay with NCI-H522, 3.21 µM (inactive); in the assay with SF-268 it was 3.55 µM (inactive); with KM12, 8.38 µM (inactive); with U-251, 3.46 µM (inactive); with NCI/ADR-RES, 4.69 µM (inactive). Also, the GI50 is 3.46 µM (inactive) in the assay on UACC-62; 4.92 µM (inactive) with OVCAR-4; 4.2 µM (inactive) in the assay on SK-MEL-5; 2.07 µM (inactive) in the assay on SF-539; 2.7 µM (inactive) in the assay with RPMI-8226; 3.28 µM (inactive) in the assay on DU-145. Moreover, the GI50 was 4.67 µM (inactive) with SN12C; 3.55 µM in the assay with HCT-15; > 10 µM (inactive) in the assay with SW-620; 5.04 µM (inactive) in the assay on EKVX; 6.27 µM (inactive) in the assay with SK-MEL-28; 4.38 µM (inactive) with UACC-257.

In the case of `CC[C@H](CC[C@@H](C)[C@H]1CC[C@H]2[C@@H]3CC=C4C[C@@H](O)CC[C@]4(C)[C@H]3CC[C@]12C)C(C)C` [BETA-SITOSTEROL], the GI50 with SNB-19, with NCI-H522, in the assay with SF-268, with KM12, in the assay with U-251 and in the assay with NCI/ADR-RES was > 100 µM (inactive) each time. Moreover, the GI50 in the assay on OVCAR-4, in the assay with SK-MEL-5, in the assay on SF-539, in the assay on RPMI-8226, in the assay with DU-145 and in the assay on SN12C was > 100 µM (inactive) throughout. Besides, the GI50 with HCT-15 is more than 100 µM; with SW-620, > 100 µM (inactive); in the assay on EKVX it was > 100 µM (inactive); in the assay on SK-MEL-28, > 100 µM (inactive); in the assay with OVCAR-5, > 100 µM (inactive); with UACC-257, > 100 µM (inactive).

The values above are taken from ChEMBL document CHEMBL1201862, “PubChem BioAssay data set” (2004).
